The assay concerns HCV subgenomic replication. Put plainly: Cell based HCV replication assay (subgenomic replicon in Huh-7 cells, NS3 Cell-ELISA). The note with it: activity ranges. The method in brief: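 Huh-7 cells stably carrying the I377neo/NS3-3′/wt subgenomic replicon, seeded at 10^4 cells/well in DMEM/10% FCS and exposed to inhibitor for 96 h. NS3 expression was measured by Cell-ELISA (mAb 10E5/24, alkaline phosphatase, absorbance 405/620 nm), in duplicate. IC50 was fitted to the Hill equation, with background from parental Huh-7 cells.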

Setting [1] is: Hepatitis C virus, Table A, Huh-7 replicon cells, 96 hours, read-out: IC50 (nM), Inhibition of HCV subgenomic replication.
Where [2] appears, read: Table A, Huh-7 replicon cells, 96 hours, read-out: IC50 (nM), Inhibition of HCV subgenomic replication.
The mark [3] stands for this setting: Table 5, various macrocycles, read-out: IC50* (nM), Inhibition of HCV subgenomic replication.
[4] abbreviates: Table 2, various macrocycles, read-out: IC50* (nM), Inhibition of HCV subgenomic replication.

Read-outs that look alike come from different tables or passages of the source. Bounds are passed on as bounds.

As to `O=C1NS(=O)(=O)N2CCN(CCN3CC4(COc5ccccc5-c5c(C6CCCCC6)c6ccc1cc6n5C4)C3)CC2` [Compound A23, 31-cyclohexyl-8-oxa-24-thia-1,4,16,23,25-pentaazaheptacyclo[23.2.2.1^4,6.1^6,16.1^15,18.1^17,21.0^9,14]tritriaconta-9,11,13,15(31),17(30),18,20-heptaen-22-one 24,24-dioxide], under setting [1], the IC50 – broadly, the concentration at which inhibition is half-maximal – was in the range of 25 to 150 nM.
Turning to `CN1CCN(C)C2COc3cc(OCc4ccccn4)ccc3-c3c(C4CCCCC4)c4ccc(cc4n3C2)C(=O)NS(=O)(=O)N(C)CC1` [Compound A8, (7R)-14-cyclohexyl-18,21,24-trimethyl-3-(pyridin-2-ylmethoxy)-7,8-dihydro-6H-7,11-(epiminoethanoiminoethanoiminothioiminomethano)indolo[1,2-e][1,5]benzoxazocin-15-one 17,17-dioxide], the half-inhibitory concentration (IC50) under setting [2] is less than 25 nM.
In the case of `CN1CCCN(CCN2CCCC2)S(=O)(=O)NC(=O)c2ccc3c(C4CCCCC4)c4n(c3c2)CC(CC1)COc1ccccc1-4` (single isomer, unassigned) [Example 505, (7R) or (7S)-14-cyclohexyl-22-methyl-18-(2-pyrrolidin-1-ylethyl)-7,8-dihydro-6H-7,11-(ethanoiminopropanoiminothioiminomethano)indolo[1,2-e][1,5]benzoxazocin-15-one 17,17-dioxide], the IC50 under setting [3] was in the range of 25 to 150 nM.
With `CN1CCN(C)C2COc3c(OCCN4CCCC4)cccc3-c3c(C4CCCCC4)c4ccc(cc4n3C2)C(=O)NS(=O)(=O)N(C)CC1` [Compound A32, (7R)-14-cyclohexyl-18,21,24-trimethyl-4-(2-pyrrolidin-1-ylethoxy)-7,8-dihydro-6H-7,11-(epiminoethanoiminoethanoiminothioiminomethano)indolo[1,2-e][1,5]benzoxazocin-15-one 17,17-dioxide], the IC50 under setting [2] is less than 25 nM.
Consider `CCN1CCN(C)[C@H]2COc3cc(OCc4ccccn4)ccc3-c3c(C4CCCCC4)c4ccc(cc4n3C2)C(=O)NS(=O)(=O)N(C)CC1` [Example 211, (7R)-14-cyclohexyl-21-ethyl-18,24-dimethyl-3-(pyridin-2-ylmethoxy)-7,8-dihydro-6H-7,11-(epiminoethanoiminoethanoiminothioiminomethano)-indolo[1,2-e][1,5]benzoxazocin-15-one 17,17-dioxide], for which, under setting [4], the IC50 was less than 25 nM.
On the same count and under the same terms, the same measure for `CCN1CCN(C)C2COc3cc(F)ccc3-c3c(C4CCCCC4)c4ccc(cc4n3C2)C(=O)NS(=O)(=O)N(C)CC1` [Example 203, (7R)-14-cyclohexyl-21-ethyl-3-fluoro-18,24-dimethyl-7,8-dihydro-6H-7,11-(epiminoethanoiminoethanoiminothioiminomethano)-indolo[1,2-e][1,5]benzoxazocin-15-one 17,17-dioxide]: less than 25 nM.
Consider `O=C1NS(=O)(=O)N2CCCN(CCCC3COc4ccccc4-c4c(C5CCCCC5)c5ccc1cc5n4C3)CC2` (stereo not drawn) [Example 508, 31-cyclohexyl-18-oxa-2-thia-1,3,10,24-tetraazahexacyclo[22.3.2.1^5,9.1^8,11.1^10,20.0^12,17]dotriaconta-5(32),6,8,11(31),12,14,16-heptaen-4-one 2,2-dioxide], for which the IC50 (Hepatitis C virus, Huh-7, Table 5, various macrocycles, read-out: IC50* (nM), Inhibition of HCV subgenomic replication) lay within 25 to 150 nM.
For `CN(C)CC(=O)N1CCN(C)[C@H]2COc3ccccc3-c3c(C4CCCCC4)c4ccc(cc4n3C2)C(=O)NS(=O)(=O)N(C)CC1` [Example 105, (7R)-14-cyclohexyl-21-(N,N-dimethylglycyl)-18,24-dimethyl-7,8-dihydro-6H-7,11-(epiminoethanoiminoethanoiminothioiminomethano)-indolo[1,2-e][1,5]benzoxazocin-15-one 17,17-dioxide], the IC50 (Table 1, 16 membered macrocycles, read-out: IC50* (nM), Inhibition of HCV subgenomic replication) is less than 25 nM.
As for `O=C1NS(=O)(=O)N2CCN(CCCC3COc4ccccc4-c4c(C5CCCCC5)c5ccc1cc5n4C3)CC2` (stereo not drawn) [Compound A34, 30-cyclohexyl-18-oxa-2-thia-1,3,10,24-tetraazahexacyclo[22.2.2.1^5,9.1^8,11.1^10,20.0^12,17]hentriaconta-5(31),6,8,11(30),12,14,16-heptaen-4-one 2,2-dioxide], the IC50 under setting [1] fell in the range of 25 to 150 nM.
Consider `C=CCc1cccc2c1OCC1Cn3c-2c(C2CCCCC2)c2ccc(cc23)C(=O)NS(=O)(=O)N(C)CCN(CC)CCN1C` [Example 403, (7R)-4-allyl-14-cyclohexyl-21-ethyl-18,24-dimethyl-7,8-dihydro-6H-7,11-(epiminoethanoiminoethanoiminothioiminomethano)-indolo[1,2-e][1,5]benzoxazocin-15-one 17,17-dioxide], for which the IC50 (Table 4, various macrocycles, read-out: IC50* (nM), Inhibition of HCV subgenomic replication) lay within 25 to 150 nM.
As to `CN1CCN(C)CC2Cn3c(c(C4CCCCC4)c4ccc(cc43)C(=O)NS(=O)(=O)N(C)CC1)-c1ccccc1N2C` (stereo not drawn) [Compound A9, 13-cyclohexyl-5,17,20,23-tetramethyl-6,7-dihydro-5H-10,6-(methanoiminothioiminoethanoiminoethanoiminomethano)indolo[1,2-d][1,4]benzodiazepin-14-one 16,16-dioxide], under setting [2], the IC50 is 25 to 150 nM.
Consider `CCN1CCN(CCNC)C2COc3cc(F)ccc3-c3c(C4CCCCC4)c4ccc(cc4n3C2)C(=O)NS(=O)(=O)N(C)CC1` [Example 208, (7R)-14-cyclohexyl-21-ethyl-3-fluoro-18-methyl-24-[2-(methylamino)ethyl]-7,8-dihydro-6H-7,11-(epiminoethanoiminoethanoiminothioiminomethano)-indolo[1,2-e][1,5]benzoxazocin-15-one 17,17-dioxide], for which the IC50 under setting [4] fell in the range of 25 to 150 nM.
With `CN1CCN2CCN(CC2)S(=O)(=O)NC(=O)c2ccc3c(C4CCCCC4)c4n(c3c2)C[C@@H]1COc1ccccc1-4` [Compound A6, (20R)-30-cyclohexyl-21-methyl-18-oxa-2-thia-1,3,10,21,24-pentaazahexacyclo[22.2.2.1^5,9.1^8,11.1^10,20.0^12,17]hentriaconta-5(31),6,8,11(30),12,14,16-heptaen-4-one 2,2-dioxide], under setting [1], the IC50 lay in the range of 25 to 150 nM.
For `CN1CCN2CCC(C2)N(C)S(=O)(=O)NC(=O)c2ccc3c(C4CCCCC4)c4n(c3c2)C[C@@H]1COc1ccccc1-4` [Compound A18, (18R)-29-cyclohexyl-10,17-dimethyl-20-oxa-9-thia-1,8,10,14,17-pentaazahexacyclo[16.9.1.1^2,6.1^3,27.1^11,14.0^21,26]hentriaconta-2(31),3,5,21,23,25,27(29)-heptaen-7-one 9,9-dioxide], the IC50 under setting [1] was less than 25 nM.
For the molecule `Cc1cccc2c1OCC1Cn3c-2c(C2CCCCC2)c2ccc(cc23)C(=O)NS(=O)(=O)N(C)CCNCCN1C` [Example 515, (7R)-14-cyclohexyl-4,18,24-trimethyl-7,8-dihydro-6H-7,11-(epiminoethanoiminoethanoiminothioiminomethano)-indolo[1,2-e][1,5]benzoxazocin-15-one 17,17-dioxide], the IC50 under setting [3] was less than 25 nM.
In the case of `CCN1CCN(C)[C@H]2COc3c(C)cccc3-c3c(C4CCCCC4)c4ccc(cc4n3C2)C(=O)NS(=O)(=O)N(C)CC1` [Compound A19, (7R)-14-cyclohexyl-21-ethyl-4,18,24-trimethyl-7,8-dihydro-6H-7,11-(epiminoethanoiminoethanoiminothioiminomethano)indolo[1,2-e][1,5]benzoxazocin-15-one 17,17-dioxide], the IC50 under setting [2] was less than 25 nM.
Regarding `CCN1CCN(CCN(C)C)C2COc3ccccc3-c3c(C4CCCCC4)c4ccc(cc4n3C2)C(=O)NS(=O)(=O)N(C)CC1` [Example 217, (7R)-14-cyclohexyl-24-[2-(dimethylamino)ethyl]-21-ethyl-18-methyl-7,8-dihydro-6H-7,11-(epiminoethanoiminoethanoiminothioiminomethano)-indolo[1,2-e][1,5]benzoxazocin-15-one 17,17-dioxide], the IC50 under setting [4] is less than 25 nM.
On to `COc1cccc2c1OCC1Cn3c-2c(C2CCCCC2)c2ccc(cc23)C(=O)NS(=O)(=O)N(C)CCNCCN1C` [Compound A27, (7R)-14-cyclohexyl-4-methoxy-18,24-dimethyl-7,8-dihydro-6H-7,11-(epiminoethanoiminoethanoiminothioiminomethano)indolo[1,2-e][1,5]benzoxazocin-15-one 17,17-dioxide], for which the IC50 under setting [2] was less than 25 nM.
Consider `Cc1cccc2c1OC[C@@H]1CCCN(C)CCN(C)S(=O)(=O)NC(=O)c3ccc4c([C@H]5CCCC[C@@H]5F)c-2n(c4c3)C1` [Example 513, (7R)-14-[(1R,2S)-2-fluorocyclohexyl]-4,18,21-trimethyl-7,8-dihydro-6H-7,11-(propanoiminoethanoiminothioiminomethano)indolo[1,2-e][1,5]benzoxazocin-15-one 17,17-dioxide], for which the IC50 under setting [3] is less than 25 nM.
For “(5R)-31-cyclohexyl-4,24-dimethyl-7-oxa-23-thia-1,4,15,22,24-pentaazahexacyclo[23.2.2.1^5,15.1^14,17.1^16,20.0^8,13]dotriaconta-8,10,12,14(31),16(30),17,19-heptaen-21-one 23,23-dioxide [Example 305]”, the IC50 (Table 3, various macrocycles, read-out: IC50* (nM), Inhibition of HCV subgenomic replication) was less than 25 nM.
On to `Cc1ccc2c(c1)OCC1Cn3c-2c(C2CCCCC2)c2ccc(cc23)C(=O)NS(=O)(=O)N(C)CCN(C(C)C)CCN1C` [Example 218, (7R)-14-cyclohexyl-21-isopropyl-3,18,24-trimethyl-7,8-dihydro-6H-7,11-(epiminoethanoiminoethanoiminothioiminomethano)-indolo[1,2-e][1,5]benzoxazocin-15-one 17,17-dioxide], for which the IC50 under setting [4] was less than 25 nM.

Source of the values: US7989438B2, “Therapeutic compounds” (Istituto di Ricerche di Biologia Molecolare P. Angeletti SpA, priority 2007, dated 2011).
